A value given as a limit tells only on which side of the number the result lay.

These results are taken from patent publication US10231956B2, “3-(1H-pyrrolo[3,2-C]pyridin-2-YL)-1 H-pyrazolo[4,3-B]pyridines and therapeutic uses thereof” (Samumed, LLC, priority 2015, dated 2019).

Common to all, as to type: cell-based
Assay [1] concerns Wnt activity (Sp5-Luc reporter, SW480 colon carcinoma cells). Nature of the assay: Sp5-Luc reporter gene screening assay for Wnt activity in SW480 cells. As to conditions: Homo sapiens; for EC50: luminescence, overnight incubation; for inhibition at 10 µM: given for EC50 >10 μM, read-out: percent inhibition at 10 μM. In outline:
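Wnt-driven firefly luciferase in SW480 colon carcinoma cells reports pathway activity after overnight compound exposure (10 μM top concentration, 3-fold steps). Signal is normalized to DMSO controls.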
For orientation: A reporter such as luciferase makes a cellular process visible.

Assay [2] concerns SW480 colon cancer cells. Nature of the assay: Cell viability assay (CellTiter-Blue) in SW480 colon cancer cells. As to conditions: Homo sapiens; for EC50: 96 h, four days, CellTiter-Blue; for inhibition at 10 µM: given for EC50 >10 μM, read-out: percent inhibition at 10 μM. In outline:
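4-day exposure, 37 °C/5% CO2; ~2×10^3 SW480 cells/well; 8-pt 1:3 curve, 10–0.0045 μM, duplicates vs DMSO controls. Resazurin→resorufin fluorescence readout, ~3 h. EC50 by nonlinear fit; if >10 μM, % inhibition at 10 μM reported.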

Assay [3] has as its system primary human fibroblasts derived from IPF patients (LL29 cells). Nature of the assay: Inhibition of fibrotic process: αSMA staining in TGF-β1 treated LL29 fibroblasts. As to conditions: Fibroblast; for EC50: 96 h, TGF-β1 20 ng/mL, 4 days, % cells positive for αSMA; for inhibition at 10 µM: given for EC50 >10 μM, TGF-β1, αSMA, read-out: percent inhibition at 10 μM. The method, boiled down: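 LL29 cells at 1,500/well in F12 with 1% FBS, compounds at 1 μM–1.87 nM (11-point, 0.1% DMSO), TGF-β1 20 ng/mL added 1 h later, 4 days at 37 °C. SYTOX-positive cells excluded; % αSMA-positive cells by immunofluorescence imaging, normalized to TGF-β1/DMSO wells, triplicates fitted for EC50; above 10 μM, % inhibition at 10 μM given.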

For `CC(C)CC(=O)Nc1cncc(-c2ccc3[nH]nc(-c4cc5c(-c6cc(F)cc(CNS(C)(=O)=O)c6)nccc5[nH]4)c3n2)c1` [Compound 478, N-(5-(3-(4-(3-Fluoro-5-(methylsulfonamidomethyl)phenyl)-1H-pyrrolo[3,2-c]pyridin-2-yl)-1H-pyrazolo[4,3-b]pyridin-5-yl)pyridin-3-yl)-3-methylbutanamide], the EC50 (as a rule, the concentration that produces a half-maximal response) in assay [1] was 624 nM; in assay [2] it was 921 nM; in assay [3], 5700 nM.

`Cc1ccncc1-c1ccc2[nH]nc(-c3cc4c(-c5cc(F)cc(CNS(C)(=O)=O)c5)nccc4[nH]3)c2n1` [Compound 481, N-(3-Fluoro-5-(2-(5-(4-methylpyridin-3-yl)-1H-pyrazolo[4,3-b]pyridin-3-yl)-1H-pyrrolo[3,2-c]pyridin-4-yl)benzyl)methanesulfonamide]: the EC50 in assay [1] was 313 nM; in assay [2] it was 1040 nM; in assay [3], 311 nM.

Regarding `CS(=O)(=O)NCc1cc(F)cc(-c2nccc3[nH]c(-c4n[nH]c5ccc(-c6cncc(NC(=O)Cc7ccccc7)c6)nc45)cc23)c1` [Compound 486, N-(5-(3-(4-(3-Fluoro-5-(methylsulfonamidomethyl)phenyl)-1H-pyrrolo[3,2-c]pyridin-2-yl)-1H-pyrazolo[4,3-b]pyridin-5-yl)pyridin-3-yl)-2-phenylacetamide], the inhibition (as a rule, the drop in the measured response relative to a control, in per cent) at 10 µM was determined as 19.3% in assay [1], 8.8% in assay [2] and 37.1% in assay [3]. Also, the EC50 in assay [1], in assay [2] and in assay [3] was > 10000 nM in each case.

On to `CS(=O)(=O)NCc1cc(F)cc(-c2nccc3[nH]c(-c4n[nH]c5ccc(-c6cncc(NC(=O)C7CCCC7)c6)nc45)cc23)c1` [Compound 498, N-(5-(3-(4-(3-Fluoro-5-(methylsulfonamidomethyl)phenyl)-1H-pyrrolo[3,2-c]pyridin-2-yl)-1H-pyrazolo[4,3-b]pyridin-5-yl)pyridin-3-yl)cyclopentanecarboxamide], for which the EC50 in assay [1] is 1310 nM; in assay [2] it was 1980 nM; in assay [3] it was > 10000 nM. Further, the inhibition at 10 µM in assay [3] stood at 34.8%.

For `CS(=O)(=O)NCc1cc(F)cc(-c2nccc3[nH]c(-c4n[nH]c5ccc(-c6cncc(NC(=O)C7CCCCC7)c6)nc45)cc23)c1` [Compound 499, N-(5-(3-(4-(3-Fluoro-5-(methylsulfonamidomethyl)phenyl)-1H-pyrrolo[3,2-c]pyridin-2-yl)-1H-pyrazolo[4,3-b]pyridin-5-yl)pyridin-3-yl)cyclohexanecarboxamide], the EC50 in assay [1] worked out at 1140 nM; in assay [2] it was 1420 nM; in assay [3], 958 nM.

`CS(=O)(=O)NCc1cc(F)cc(-c2nccc3[nH]c(-c4n[nH]c5ccc(-c6cncc(CN7CCC(F)(F)C7)c6)nc45)cc23)c1` [Compound 502, N-(3-(2-(5-(5-((3,3-Difluoropyrrolidin-1-yl)methyl)pyridin-3-yl)-1H-pyrazolo[4,3-b]pyridin-3-yl)-1H-pyrrolo[3,2-c]pyridin-4-yl)-5-fluorobenzyl) methanesulfonamide]: the EC50 stood at 502 nM in assay [1], 810 nM in assay [2] and 218 nM in assay [3].

Take `CS(=O)(=O)NCc1cc(F)cc(-c2nccc3[nH]c(-c4n[nH]c5ccc(-c6cncnc6)nc45)cc23)c1` [Compound 503, N-(3-Fluoro-5-(2-(5-(pyrimidin-5-yl)-1H-pyrazolo[4,3-b]pyridin-3-yl)-1H-pyrrolo [3,2-c]pyridin-4-yl)benzyl)methanesulfonamide]: the results for the EC50 in assay [1], in assay [2] and in assay [3] were 745 nM, > 10000 nM and > 10000 nM, respectively. Also, the inhibition at 10 µM in assay [2] came out at 15.3%; in assay [3] it was 0%.

Consider `CS(=O)(=O)NCc1cc(F)cc(-c2nccc3[nH]c(-c4n[nH]c5ccc(-c6ccccn6)nc45)cc23)c1` [Compound 504, N-(3-Fluoro-5-(2-(5-(pyridin-2-yl)-1H-pyrazolo[4,3-b]pyridin-3-yl)-1H-pyrrolo[3,2-c]pyridin-4-yl)benzyl)methanesulfonamide], for which the EC50 in assay [1] was 2140 nM; in assay [2], > 10000 nM; in assay [3], 1940 nM. In addition, the inhibition at 10 µM in assay [2] came out at 44.7%.

In the case of `Fc1cccc(-c2nccc3[nH]c(-c4n[nH]c5ccc(-c6cncc(OCc7ccccc7)c6)nc45)cc23)c1` [Compound 518, 5-(5-(Benzyloxy)pyridin-3-yl)-3-(4-(3-fluorophenyl)-1H-pyrrolo[3,2-c]pyridin-2-yl)-1H-pyrazolo[4,3-b]pyridine], the results for the EC50 in assay [1], in assay [2] and in assay [3] were 4410 nM, 1360 nM and 1040 nM, respectively.

Turning to `Fc1ccc(-c2nccc3[nH]c(-c4n[nH]c5ccc(-c6cncc(OC7CCNCC7)c6)nc45)cc23)cc1` [Compound 528, 3-(4-(4-Fluorophenyl)-1H-pyrrolo[3,2-c]pyridin-2-yl)-5-(5-(piperidin-4-yloxy)pyridin-3-yl)-1H-pyrazolo[4,3-b]pyridine], the values for the EC50 in assay [1], in assay [2] and in assay [3] were 3830 nM, 5220 nM and 1440 nM, respectively.

Consider `Fc1ccccc1-c1nccc2[nH]c(-c3n[nH]c4ccc(-c5cn[nH]c5)nc34)cc12` [Compound 539, 3-(4-(2-Fluorophenyl)-1H-pyrrolo[3,2-c]pyridin-2-yl)-5-(1H-pyrazol-4-yl)-1H-pyrazolo[4,3-b]pyridine], for which the figures for the EC50 in assay [1], in assay [2] and in assay [3] were 590 nM, 1270 nM and 33 nM, respectively.

As for `Cc1ncc(-c2ccc3[nH]nc(-c4cc5c(-c6ccncc6)nccc5[nH]4)c3n2)n1C` [Compound 573, 5-(1,2-Dimethyl-1H-imidazol-5-yl)-3-(4-(pyridin-4-yl)-1H-pyrrolo[3,2-c]pyridin-2-yl)-1H-pyrazolo[4,3-b]pyridine], the EC50 is 100 nM in assay [1], > 10000 nM in assay [2] and 73 nM in assay [3]. The inhibition at 10 µM in assay [2] came to 25.6%.

With `c1cc2[nH]c(-c3n[nH]c4ccc(-c5cncc(OC6CCCCC6)c5)nc34)cc2c(N2CCCCC2)n1` [Compound 607, 5-(5-(Cyclohexyloxy)pyridin-3-yl)-3-(4-(piperidin-1-yl)-1H-pyrrolo[3,2-c]pyridin-2-yl)-1H-pyrazolo[4,3-b]pyridine], the EC50 in assay [1] is 2660 nM; in assay [2], 300 nM; in assay [3], > 10000 nM. Also, the inhibition at 10 µM in assay [3] amounted to 25.4%.

For the molecule `O=C(CC1CCNCC1)Nc1cncc(-c2ccc3[nH]nc(-c4cc5c(N6CCCCC6)nccc5[nH]4)c3n2)c1` [Compound 609, N-(5-(3-(4-(Piperidin-1-yl)-1H-pyrrolo[3,2-c]pyridin-2-yl)-1H-pyrazolo[4,3-b]pyridin-5-yl)pyridin-3-yl)-2-(piperidin-4-yl)acetamide], the inhibition at 10 µM in assay [1] was determined as 13.3%; in assay [2], 9.7%. Besides, the EC50 in assay [1] was > 10000 nM; in assay [2], > 10000 nM; in assay [3], 1080 nM.

Consider `CN1CCN(c2nccc3[nH]c(-c4n[nH]c5ccc(-c6cncc(NC(=O)CC7CCNCC7)c6)nc45)cc23)CC1` [Compound 641, N-(5-(3-(4-(4-Methylpiperazin-1l-yl)-1H-pyrrolo[3,2-c]pyridin-2-yl)-1H-pyrazolo[4,3-b]pyridin-5-yl)pyridin-3-yl)-2-(piperidin-4-yl)acetamide], for which the values for the inhibition at 10 µM in assay [1] and in assay [2] were 2.1% and 16.3%, respectively. Further, the values for the EC50 in assay [1], in assay [2] and in assay [3] were > 10000 nM, > 10000 nM and 5000 nM, respectively.

Regarding `c1cc2[nH]c(-c3n[nH]c4ccc(-c5cncc(OCCN6CCCC6)c5)nc34)cc2cn1` [Compound 658, 5-(5-(2-(Pyrrolidin-1-yl)ethoxy)pyridin-3-yl)-3-(1H-pyrrolo[3,2-c]pyridin-2-yl)-1H-pyrazolo[4,3-b]pyridine], the results for the EC50 in assay [1], in assay [2] and in assay [3] were 3910 nM, 2070 nM and 4750 nM, respectively.
